Test results reported in patent US20020137929A1, “1 - (3-heterocyclylphenyl) isothiourea, -isourea, -guanidine and -amidine herbicidal agents” (Intellectual Property Department, BASF Aktiengesellschaft, priority 1998, published 2002).

Tests used:
CYPSE (Flatsedge) = assay: Preemergence weed control under flooded paddy conditions; type: in vivo, Cyperus serotinus; conditions: rated 3-4 weeks after treatment
Procedure, shortened: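 Silt loam, seeds in top 0.5 cm; flood held 1.5-3 cm; test cpd as acetone/water 50/50 into flood water, ~0.0313-0.500 kg/ha a.i.; greenhouse 3-4 wk; visual 0-9 score vs control.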

ECHCG (Barnyardgrass) = assay: Postemergence herbicidal evaluation; type: in vivo, Echinochloa crus-galli; conditions: for Herbicidal rating ECHCG / ECHCG herbicidal rating: postemergence
Procedure, shortened: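 Seedlings grown about two weeks were sprayed at 40 psi with compound dispersed in 50/50 acetone/water plus 0.5% TWEEN 20, at about 0.0156 to 0.500 kg/ha. Plants were kept in the greenhouse and scored 4–5 weeks later on a 0–9 visual scale against untreated controls.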

[1] = tested on: ECHORC (Watergrass (Calif.)); assay: Preemergence weed control under flooded paddy conditions; type: in vivo, Echinochloa oryzoides; conditions: rated 3-4 weeks after treatment
Procedure, shortened: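 Visual injury scored 0-9 against control three to four weeks post-treatment, greenhouse-grown. Application: acetone/water (50/50) solutions dosed directly into flood water (1.5-3 cm over silt loam, planted top 0.5 cm), roughly 0.0313 to 0.500 kg/ha active ingredient.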

ORYSAT (Rice, Tebonnet) = assay: Preemergence herbicidal evaluation; type: in vivo, Oryza sativa, (L.) Tebonnet; conditions: rated 4-5 weeks after treatment; for ORYSAT rating: preemergence, 0-9 scale
Procedure, shortened: (§1)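 Steps: mix seeds into potting soil; plant atop ~1 inch soil; spray compound in aqueous acetone (~0.0156-0.500 kg/ha equivalent); maintain in greenhouse with watering; rate visually 0-9 versus control at 4-5 weeks.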

[2] = tested on: CHEAL (Lambsquarters, Common); assay: Preemergence herbicidal evaluation; type: in vivo, Chenopodium album; conditions: rated 4-5 weeks after treatment; for CHEAL rating: preemergence, 0-9 scale
Procedure, shortened: as §1

MOOVA (Monochoria) = assay: Postemergence weed control under flooded paddy conditions; type: in vivo, Monochoria vaginalis; conditions: postemergence weeds
Procedure, shortened: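 Flood-water application, about 0.0313–0.500 kg/ha a.i. in aqueous/acetone 50/50 v/v; water depth 1.5–3 cm throughout. Weeds 3–5 cm, rice 1.5–2.5 leaf. Greenhouse; 0–9 visual rating vs control at 3–4 wk.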

[3] = rate 0.0313 kg/ha, 3-4 weeks after treatment
[4] = rate 0.0625 kg/ha, 3-4 weeks after treatment
[5] = rate 0.1250 kg/ha, 3-4 weeks after treatment
[6] = rate 0.2500 kg/ha, 3-4 weeks after treatment
[7] = Rate 0.0313 kg/ha, rated 3 to 4 weeks after treatment
[8] = Rate 0.0625 kg/ha, rated 3 to 4 weeks after treatment
[9] = Rate 0.1250 kg/ha, rated 3 to 4 weeks after treatment
[10] = Rate 0.2500 kg/ha, rated 3 to 4 weeks after treatment

CCOC(=O)CN1C(=O)C(CCO)S/C1=N/c1cc(-n2c(=O)cc(C(F)(F)F)n(C)c2=O)c(F)cc1Cl (stereo not drawn) [Compound 49, Ethyl 2-{{2-chloro-5-[3,6-dihydro-3-methyl-2,6-dioxo-4-(trifluoromethyl)-1(2H)-pyrimidinyl]-4-fluorophenyl}imino}-5-(hydroxyethyl)-4-oxo-3-thiazolidineacetate]
Herbicidal rating CYPSE (CYPSE (Flatsedge); 0.0313 kg/ha): 2.0 | Herbicidal rating CYPSE (CYPSE (Flatsedge); 0.0625 kg/ha): 3.0 | Herbicidal rating CYPSE (CYPSE (Flatsedge); 0.2500 kg/ha): 4.0 | Postemergence herbicidal rating ECHCG (ECHCG (Barnyardgrass); Rate 0.0313 kg/ha): 0.0 | Postemergence herbicidal rating ECHCG (ECHCG (Barnyardgrass); Rate 0.0625 kg/ha): 0.0 | Postemergence herbicidal rating ECHCG (ECHCG (Barnyardgrass); rate 0.0156 kg/ha): 0.0 | Herbicidal rating ECHORC ([1]; 0.0313 kg/ha): 0.0 | Herbicidal rating ECHORC ([1]; 0.0625 kg/ha): 2.0 | Herbicidal rating ECHORC ([1]; 0.1250 kg/ha): 5.0 | Herbicidal rating ECHORC ([1]; 0.2500 kg/ha): 7.0 | Preemergence herbicidal rating ORYSAT (ORYSAT (Rice, Tebonnet); rate 0.0156 kg/ha): 0.0 | Preemergence herbicidal rating ORYSAT (ORYSAT (Rice, Tebonnet); rate 0.0313 kg/ha): 0.0 | Preemergence herbicidal rating ORYSAT (ORYSAT (Rice, Tebonnet); rate 0.0625 kg/ha): 0.0 | Preemergence herbicidal rating ORYSAT (ORYSAT (Rice, Tebonnet); rate 0.1250 kg/ha): 5.0 | Preemergence herbicidal rating ORYSAT (ORYSAT (Rice, Tebonnet); rate 0.2500 kg/ha): 5.0 | Preemergence herbicidal rating CHEAL ([2]; rate 0.0156 kg/ha): 9.0 | Preemergence herbicidal rating CHEAL ([2]; rate 0.0313 kg/ha): 9.0 | Preemergence herbicidal rating CHEAL ([2]; rate 0.0625 kg/ha): 9.0 | Preemergence herbicidal rating CHEAL ([2]; rate 0.1250 kg/ha): 9.0 | Preemergence herbicidal rating CHEAL ([2]; rate 0.2500 kg/ha): 9.0 | Herbicidal rating MOOVA (MOOVA (Monochoria); [3]): 9.0 | Herbicidal rating MOOVA (MOOVA (Monochoria); [4]): 9.0 | Herbicidal rating MOOVA (MOOVA (Monochoria); [5]): 9.0 | Herbicidal rating MOOVA (MOOVA (Monochoria); [6]): 9.0

CC(C)S(=O)(=O)NC(=O)CC1SC(=Nc2cc(-n3c(=O)cc(C(F)(F)F)n(C)c3=O)c(F)cc2Cl)N(C)C1=O (stereo not drawn) [Compound 119, 2-{{2-Chloro-5-[3,6-dihydro-3-methyl-2,6-dioxo-4-(trifluoromethyl)-1(2H)-pyrimidinyl]-4-fluorophenyl}imino}-N-(isopropylsulfonyl)-3-methyl-4-oxo-5-thiazolidineacetamide]
herbicidal effect rating, CYPSE (CYPSE (Flatsedge); 0.0313 kg/ha): 0.0 | herbicidal effect rating, CYPSE (CYPSE (Flatsedge); 0.0625 kg/ha): 0.0 | herbicidal effect rating, CYPSE (CYPSE (Flatsedge); 0.1250 kg/ha): 0.0 | herbicidal effect rating, CYPSE (CYPSE (Flatsedge); 0.2500 kg/ha): 1.0 | Herbicidal rating ECHCG (ECHCG (Barnyardgrass); rate 0.0156 kg/ha): 0.0 | Herbicidal rating ECHCG (ECHCG (Barnyardgrass); rate 0.0313 kg/ha): 0.0 | Herbicidal rating ECHCG (ECHCG (Barnyardgrass); rate 0.0625 kg/ha): 1.0 | herbicidal effect rating, ECHORC ([1]; 0.0313 kg/ha): 8.0 | herbicidal effect rating, ECHORC ([1]; 0.0625 kg/ha): 9.0 | herbicidal effect rating, ECHORC ([1]; 0.1250 kg/ha): 9.0 | herbicidal effect rating, ECHORC ([1]; 0.2500 kg/ha): 9.0 | Preemergence herbicidal rating ORYSAT (ORYSAT (Rice, Tebonnet); rate 0.0156 kg/ha): 0.0 | Preemergence herbicidal rating ORYSAT (ORYSAT (Rice, Tebonnet); rate 0.0313 kg/ha): 0.0 | Preemergence herbicidal rating ORYSAT (ORYSAT (Rice, Tebonnet); rate 0.0625 kg/ha): 0.0 | Preemergence herbicidal rating ORYSAT (ORYSAT (Rice, Tebonnet); rate 0.1250 kg/ha): 0.0 | Preemergence herbicidal rating ORYSAT (ORYSAT (Rice, Tebonnet); rate 0.2500 kg/ha): 0.0 | Preemergence herbicidal rating CHEAL ([2]; rate 0.0156 kg/ha): 9.0 | Preemergence herbicidal rating CHEAL ([2]; rate 0.0313 kg/ha): 9.0 | Preemergence herbicidal rating CHEAL ([2]; rate 0.0625 kg/ha): 9.0 | Preemergence herbicidal rating CHEAL ([2]; rate 0.1250 kg/ha): 9.0 | Preemergence herbicidal rating CHEAL ([2]; rate 0.2500 kg/ha): 9.0 | Herbicidal rating MOOVA (MOOVA (Monochoria); [7]): 4.0 | Herbicidal rating MOOVA (MOOVA (Monochoria); [8]): 7.0 | Herbicidal rating MOOVA (MOOVA (Monochoria); [9]): 8.0 | Herbicidal rating MOOVA (MOOVA (Monochoria); [10]): 9.0

C=CCN1C(=O)C(CC(=O)NS(C)(=O)=O)SC1=Nc1cc(-n2c(=O)cc(C(F)(F)F)n(C)c2=O)c(F)cc1Cl (stereo not drawn) [Compound 96, 3-Allyl-2-{{2-chloro-5-[3,6-dihydro-3-methyl-2,6-dioxo-4-(trifluoromethyl)-1(2H)-pryimidinyl]-4-fluorophenyl}imino}-N-(methylsulfonyl)-4-oxo-5-thiazolidineacetamide]
CYPSE herbicidal effect rating (CYPSE (Flatsedge); 0.0313 kg/ha): 0.0 | CYPSE herbicidal effect rating (CYPSE (Flatsedge); 0.0625 kg/ha): 0.0 | CYPSE herbicidal effect rating (CYPSE (Flatsedge); 0.1250 kg/ha): 0.0 | CYPSE herbicidal effect rating (CYPSE (Flatsedge); 0.2500 kg/ha): 0.0 | ECHCG herbicidal rating (ECHCG (Barnyardgrass); rate 0.0156 kg/ha): 0.0 | ECHCG herbicidal rating (ECHCG (Barnyardgrass); rate 0.0313 kg/ha): 0.0 | ECHCG herbicidal rating (ECHCG (Barnyardgrass); rate 0.0625 kg/ha): 2.0 | ECHCG herbicidal rating (ECHCG (Barnyardgrass); rate 0.1250 kg/ha): 2.0 | ECHORC herbicidal effect rating ([1]; 0.0313 kg/ha): 0.0 | ECHORC herbicidal effect rating ([1]; 0.0625 kg/ha): 0.0 | ECHORC herbicidal effect rating ([1]; 0.1250 kg/ha): 0.0 | ECHORC herbicidal effect rating ([1]; 0.2500 kg/ha): 3.0 | ORYSAT rating (ORYSAT (Rice, Tebonnet); 0.0313 kg/ha): 0.0 | ORYSAT rating (ORYSAT (Rice, Tebonnet); 0.0625 kg/ha): 0.0 | ORYSAT rating (ORYSAT (Rice, Tebonnet); 0.1250 kg/ha): 0.0 | ORYSAT rating (ORYSAT (Rice, Tebonnet); 0.2500 kg/ha): 1.0 | ORYSAT rating (ORYSAT (Rice, Tebonnet); 0.5000 kg/ha): 2.0 | CHEAL rating ([2]; 0.0313 kg/ha): 2.0 | CHEAL rating ([2]; 0.0625 kg/ha): 2.0 | CHEAL rating ([2]; 0.1250 kg/ha): 3.0 | CHEAL rating ([2]; 0.2500 kg/ha): 9.0 | CHEAL rating ([2]; 0.5000 kg/ha): 9.0 | Herbicidal rating MOOVA (MOOVA (Monochoria); [7]): 2.0 | Herbicidal rating MOOVA (MOOVA (Monochoria); [8]): 2.0 | Herbicidal rating MOOVA (MOOVA (Monochoria); [9]): 3.0 | Herbicidal rating MOOVA (MOOVA (Monochoria); [10]): 3.0

CN1C(=O)C(CC(=O)NS(=O)(=O)c2ccccc2)SC1=Nc1cc(-n2c(=O)cc(C(F)(F)F)n(C)c2=O)c(F)cc1Cl (stereo not drawn) [Compound 102, 2-{{2-Chloro-5-[3,6-dihydro-3-methyl-2,6-dioxo-4-(trifluoromethyl)-1(2H)-pyrimidinyl]-4-fluorophenyl}imino}-3-methyl-4-oxo-N-(phenylsulfonyl)-5-thiazolidineacetamide]
CYPSE herbicidal effect rating (CYPSE (Flatsedge); 0.2500 kg/ha): 0.0 | CYPSE herbicidal effect rating (CYPSE (Flatsedge); 0.5000 kg/ha): 0.0 | Herbicidal rating ECHCG (ECHCG (Barnyardgrass); rate 0.0156 kg/ha): 0.0 | Herbicidal rating ECHCG (ECHCG (Barnyardgrass); rate 0.0313 kg/ha): 1.0 | Herbicidal rating ECHCG (ECHCG (Barnyardgrass); rate 0.0625 kg/ha): 2.0 | Herbicidal rating ECHCG (ECHCG (Barnyardgrass); rate 0.1250 kg/ha): 6.0 | ECHORC herbicidal effect rating ([1]; 0.2500 kg/ha): 0.0 | ECHORC herbicidal effect rating ([1]; 0.5000 kg/ha): 2.0 | ORYSAT rating (ORYSAT (Rice, Tebonnet); 0.0156 kg/ha): 0.0 | ORYSAT rating (ORYSAT (Rice, Tebonnet); 0.0313 kg/ha): 0.0 | ORYSAT rating (ORYSAT (Rice, Tebonnet); 0.0625 kg/ha): 0.0 | ORYSAT rating (ORYSAT (Rice, Tebonnet); 0.2500 kg/ha): 0.0 | ORYSAT rating (ORYSAT (Rice, Tebonnet); 0.5000 kg/ha): 1.0 | CHEAL rating ([2]; 0.0313 kg/ha): 6.0 | CHEAL rating ([2]; 0.0625 kg/ha): 5.0 | CHEAL rating ([2]; 0.2500 kg/ha): 1.0 | CHEAL rating ([2]; 0.5000 kg/ha): 9.0 | Herbicidal rating MOOVA (MOOVA (Monochoria); [10]): 0.0 | Herbicidal rating MOOVA (MOOVA (Monochoria); Rate 0.5000 kg/ha, rated 3 to 4 weeks after treatment): 4.0

CCOC(=O)CN1C(=O)C(CC(=O)OC(C)C)SC1=Nc1cc(-n2c(=O)cc(C(F)(F)F)n(C)c2=O)c(F)cc1Cl (stereo not drawn) [Compound 55, 2-{{2-Chloro-5-[3,6-dihydro-3-methyl-2,6-dioxo-4-(trifluoromethyl)-1(2H)-pyrimidinyl]-4-fluoro-phenyl}imino}-4-oxo-3,5-thiazolidinediacetic acid, 3-ethyl isopropyl ester]
Herbicidal rating CYPSE (CYPSE (Flatsedge); 0.0313 kg/ha): 0.0 | Herbicidal rating CYPSE (CYPSE (Flatsedge); 0.0625 kg/ha): 0.0 | Herbicidal rating CYPSE (CYPSE (Flatsedge); 0.1250 kg/ha): 0.0 | Herbicidal rating CYPSE (CYPSE (Flatsedge); 0.2500 kg/ha): 0.0 | Postemergence herbicidal rating ECHCG (ECHCG (Barnyardgrass); Rate 0.0158 kg/ha): 9.0 | Postemergence herbicidal rating ECHCG (ECHCG (Barnyardgrass); Rate 0.0313 kg/ha): 9.0 | Postemergence herbicidal rating ECHCG (ECHCG (Barnyardgrass); Rate 0.0625 kg/ha): 9.0 | Postemergence herbicidal rating ECHCG (ECHCG (Barnyardgrass); Rate 0.1250 kg/ha): 9.0 | Postemergence herbicidal rating ECHCG (ECHCG (Barnyardgrass); Rate 0.2500 kg/ha): 9.0 | Herbicidal rating ECHORC ([1]; 0.0313 kg/ha): 7.0 | Herbicidal rating ECHORC ([1]; 0.0625 kg/ha): 7.0 | Herbicidal rating ECHORC ([1]; 0.1250 kg/ha): 7.0 | Herbicidal rating ECHORC ([1]; 0.2500 kg/ha): 7.0 | Herbicidal rating MOOVA (MOOVA (Monochoria); [3]): 9.0 | Herbicidal rating MOOVA (MOOVA (Monochoria); [4]): 9.0 | Herbicidal rating MOOVA (MOOVA (Monochoria); [5]): 9.0 | Herbicidal rating MOOVA (MOOVA (Monochoria); [6]): 9.0
